# Source: patent publication US20240148821A1, “PHARMACEUTICAL USE OF CYCLIC PEPTIDE COMPOUND” (CHUGAI SEIYAKU KABUSHIKI KAISHA, priority 2021, published 2024)
# Numbered stars: 1 amine (or outer) side, 2 acyl side, 3 side chain; on linkers, the order of the positions; unused ones are H or OH. Bridge positions count the residues as written; N and C are the ends. Square brackets hold non-standard residues; d marks the D form. Peptide text beside a SMILES is read from it. * marks the point of attachment. hPhe(3,5-F2-4-CF3) = N[C@@H](CCc1cc(F)c(C(F)(F)F)c(F)c1)C(=O)O; hPhe(3-Cl-4-CF3) = N[C@@H](CCc1ccc(C(F)(F)F)c(Cl)c1)C(=O)O; hPhe(3-F,4-CF3) = N[C@@H](CCc1ccc(C(F)(F)F)c(F)c1)C(=O)O; NMePhe(4-CF3) = CN[C@@H](Cc1ccc(C(F)(F)F)cc1)C(=O)O; Pro(trans-4-Ph) = O=C(O)[C@@H]1C[C@@H](c2ccccc2)CN1; X18 = O=C([C@H](CCc1ccc(C(F)(F)F)cn1)N[*:1])[*:2]; NMeAbu(4,4,4-F3) = CN[C@@H](CC(F)(F)F)C(=O)O; NMePhe(4-Me) = CN[C@@H](Cc1ccc(C)cc1)C(=O)O; NMePhe(2-Cl) = CN[C@@H](Cc1ccccc1Cl)C(=O)O; NMeAla(cPent) = CN[C@@H](CC1CCCC1)C(=O)O; NMeGly(cPent) = CN[C@H](C(=O)O)C1CCCC1; NMe3Pal = CN[C@@H](Cc1cccnc1)C(=O)O; NMeCha = CN[C@@H](CC1CCCCC1)C(=O)O; Hyp = O=C(O)[C@@H]1C[C@@H](O)CN1; NMeChg = CN[C@H](C(=O)O)C1CCCCC1; NMeI = CC[C@H](C)[C@H](NC)C(=O)O; Cha = N[C@@H](CC1CCCCC1)C(=O)O; NMeD = CN[C@@H](CC(=O)O)C(=O)O; NMeL = CN[C@@H](CC(C)C)C(=O)O; NMeV = CN[C@H](C(=O)O)C(C)C; d(β3hA) = C[C@@H](N)CC(=O)O; NMeS = CN[C@@H](CO)C(=O)O; Pip = O=C(O)[C@@H]1CCCCN1; Morpholide = C1CN(*)CCO1; NMeA = CN[C@@H](C)C(=O)O; NMeAib = CNC(C)(C)C(=O)O; Nle = CCCC[C@H](N)C(=O)O; Piperidide = C1CCN(*)CC1; Pyrrolidide = C1CCN(*)C1; dNMeA = CN[C@H](C)C(=O)O; Ac5c = NC1(C(=O)O)CCCC1; Aze = O=C(O)[C@@H]1CCN1; Isopentyl = CC(C)CC*; NEtG = CCNCC(=O)O; Sar = CNCC(=O)O; Propyl = CCC*
# What was measured:
# [1] = target: protein-protein interaction between Kras and SOS1 (biotin-tagged human Kras loaded with GDP, His-tagged human SOS1) (Homo sapiens (Human), UniProt P01116, G12D); assay: Protein-protein interaction inhibition between Kras and SOS1 (KrasG12D-SOS PPI) using AlphaScreen; format: biochemical; settings: AlphaScreen; biotin-tagged human Kras loaded with GDP, His-tagged human SOS1; read-out: KRAS G12D-SOS PPI IC50;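 further: kras produced in E. coli, Ni-coupled donor beads and streptavidin acceptor beads, excitation 680 nm with emission detected at 520–620 nm via singlet oxygen transfer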
# [2] = system: Human pancreatic cancer cell line AsPC-1 (G12D mutation Kras); assay: AsPC-1 cell growth inhibition (AsPC-1 CGI); format: cell-based; settings: read-out: AsPC-1 cell growth inhibition, 50% growth inhibitory concentration (IC50 value); 96 hours, CellTiter-Glo, values classified in ranges
SMILES,IC50 [1] [nM],IC50 [2] [nM]
CC[C@H](C)[C@@H]1NC(=O)[C@H](CC(C)C)N(C)C(=O)C[C@@H](C(=O)N2CCCCC2)N(C)C(=O)[C@H](CC2CCCC2)N(C)C(=O)C2(CCCC2)NC(=O)[C@@H]2CCCN2C(=O)[C@H](CCc2ccc(C(F)(F)F)c(Cl)c2)NC(=O)CN(C)C(=O)[C@H](CC2CCCCC2)N(C)C(=O)[C@@H]2CCN2C(=O)[C@H](C)N(C)C1=O [Compound 1820] ([NMeL]I[NMeA][Aze][NMeCha][Sar][hPhe(3-Cl-4-CF3)]P[Ac5c][NMeAla(cPent)][NMeD]-Piperidide; lactam N-11),14,> 500
CC(C)CCOC[C@@H]1NC(=O)[C@H](CC(C)C)N(C)C(=O)C[C@@H](C(=O)N2CCCCC2)N(C)C(=O)[C@H](C(C)C)N(C)C(=O)C2(CCCC2)NC(=O)[C@@H]2CCCN2C(=O)[C@H](CCc2ccc(C(F)(F)F)c(Cl)c2)NC(=O)CN(C)C(=O)[C@H](CC2CCCCC2)N(C)C(=O)[C@@H]2CCN2C(=O)[C@H](C)N(C)C1=O [Compound 485] ([NMeL]S(Isopentyl)[NMeA][Aze][NMeCha][Sar][hPhe(3-Cl-4-CF3)]P[Ac5c][NMeV][NMeD]-Piperidide; lactam N-11),160,> 500
CC[C@H](C)[C@@H]1NC(=O)[C@H](CC(C)C)N(C)C(=O)C[C@@H](C(=O)N2CCOCC2)N(C)C(=O)[C@H](C2CCCCC2)N(C)C(=O)C2(CCCC2)NC(=O)[C@H](Cc2cccnc2)N(C)C(=O)[C@H](CCc2ccc(C(F)(F)F)c(Cl)c2)NC(=O)CN(C)C(=O)[C@H](CC2CCCCC2)N(C)C(=O)CN(C)C(=O)CN(C)C1=O [Compound 1745] ([NMeL]I[Sar][Sar][NMeCha][Sar][hPhe(3-Cl-4-CF3)][NMe3Pal][Ac5c][NMeChg][NMeD]-Morpholide; lactam N-11),1.3,> 500
CCCC[C@@H]1NC(=O)[C@H](CCc2ccc(C(F)(F)F)c(Cl)c2)NC(=O)CN(C)C(=O)[C@H](CC2CCCCC2)N(C)C(=O)[C@@H]2CCN2C(=O)CN(C)C(=O)[C@H]([C@@H](C)CC)NC(=O)[C@@H]2CCCCN2C(=O)C[C@@H](C(=O)N2CCCCC2)N(C)C(=O)[C@H](CC(C)C)NC(=O)C(C)(C)N(C)C1=O [Compound 760] ([Pip]I[Sar][Aze][NMeCha][Sar][hPhe(3-Cl-4-CF3)][Nle][NMeAib]L[NMeD]-Piperidide; lactam N-11),5.2,> 500
"CCO[C@@H]1C[C@H]2C(=O)NC3(CCCC3)C(=O)N(C)[C@@H](C3CCCCC3)C(=O)N(C)[C@H](C(=O)N3CCCC3)CC(=O)N(C)[C@@H](CC(F)(F)F)C(=O)N[C@@H]([C@@H](C)CC)C(=O)N(C)CC(=O)N(C)CC(=O)N(C)[C@@H](CC3CCCCC3)C(=O)N(C)CC(=O)N[C@@H](CCc3cc(F)c(C(F)(F)F)c(F)c3)C(=O)N2C1 [Compound 1149] ([NMeAbu(4,4,4-F3)]I[Sar][Sar][NMeCha][Sar][hPhe(3,5-F2-4-CF3)][Hyp](Et)[Ac5c][NMeChg][NMeD]-Pyrrolidide; lactam N-11)",0.62,≤ 20
CC[C@H](C)[C@@H]1NC(=O)[C@H](CC(C)C)N(C)C(=O)C[C@@H](C)NC(=O)[C@H](CC(C)C)N(C)C(=O)C2(CCCC2)NC(=O)[C@H](CC(C)C)N(C)C(=O)[C@H](CCc2ccc(C(F)(F)F)c(Cl)c2)NC(=O)CN(C)C(=O)[C@H](CC2CCCCC2)N(C)C(=O)CN(C)C(=O)CN(C)C1=O [Compound 217] (cyclo([Ac5c][NMeL][d(β3hA)][NMeL]I[Sar][Sar][NMeCha][Sar][hPhe(3-Cl-4-CF3)][NMeL])),66,> 500
CC[C@H](C)[C@@H]1NC(=O)[C@H](CC(C)C)N(C)C(=O)C[C@@H](C(=O)N2CCCCC2)N(C)C(=O)[C@H](C2CCCC2)N(C)C(=O)C2(CCCC2)NC(=O)[C@@H]2CCCN2C(=O)[C@H](CCc2ccc(C(F)(F)F)cn2)NC(=O)CN(C)C(=O)[C@H](CC2CCCCC2)N(C)C(=O)[C@@H]2CCN2C(=O)[C@H](C)N(C)C1=O [Compound 2069] ([NMeL]I[NMeA][Aze][NMeCha][Sar][X18]P[Ac5c][NMeGly(cPent)][NMeD]-Piperidide; lactam N-11 (inferred); C-terminus assumed),78,> 500
CC[C@H](C)[C@@H]1NC(=O)[C@H](C)N(C)C(=O)C[C@@H](C(=O)N2CCCCC2)N(C)C(=O)[C@H](C(C)C)N(C)C(=O)C2(CCCC2)NC(=O)[C@H](Cc2ccccc2Cl)N(C)C(=O)[C@H](CCc2ccc(C(F)(F)F)c(Cl)c2)NC(=O)CN(C)C(=O)[C@H](CC2CCCCC2)N(C)C(=O)CN(C)C(=O)CN(C)C1=O [Compound 963] ([NMeA]I[Sar][Sar][NMeCha][Sar][hPhe(3-Cl-4-CF3)][NMePhe(2-Cl)][Ac5c][NMeV][NMeD]-Piperidide; lactam N-11),13,> 500
CC[C@H](C)[C@@H]1NC(=O)[C@H](CC(C)C)N(C)C(=O)C[C@@H](C(=O)N2CCCCC2)N(C)C(=O)[C@H](C2CCCCC2)N(C)C(=O)C2(CCCC2)NC(=O)[C@@H]2C[C@@H](c3ccccc3)CN2C(=O)[C@H](CCc2ccc(C(F)(F)F)c(Cl)c2)NC(=O)CN(C)C(=O)[C@H](CC2CCCCC2)N(C)C(=O)[C@@H]2CCCN2C(=O)CN(C)C1=O [Compound 255] ([NMeL]I[Sar]P[NMeCha][Sar][hPhe(3-Cl-4-CF3)][Pro(trans-4-Ph)][Ac5c][NMeChg][NMeD]-Piperidide; lactam N-11),7.8,> 500
CC[C@H](C)[C@@H]1NC(=O)[C@H](CC(C)C)N(C)C(=O)C[C@@H](C(=O)N2CCCCC2)N(C)C(=O)[C@H](C(C)C)N(C)C(=O)C2(CCCC2)NC(=O)[C@@H]2CCCN2C(=O)[C@H](CCc2ccc(C(F)(F)F)c(Cl)c2)NC(=O)CN(CC)C(=O)[C@H](CC2CCCCC2)N(C)C(=O)[C@@H]2CCN2C(=O)[C@H](C)N(C)C1=O [Compound 1276] ([NMeL]I[NMeA][Aze][NMeCha][NEtG][hPhe(3-Cl-4-CF3)]P[Ac5c][NMeV][NMeD]-Piperidide; lactam N-11),17,> 500
CC(C)C[C@H]1C(=O)N[C@@H](CC2CCCCC2)C(=O)N(C)CC(=O)N(C)CC(=O)N(C)[C@@H](CC2CCCCC2)C(=O)N(C)CC(=O)N[C@@H](CCc2ccc(C(F)(F)F)c(Cl)c2)C(=O)N2CCC[C@H]2C(=O)NC2(CCCC2)C(=O)N(C)[C@@H](C2CCCCC2)C(=O)N(C)[C@H](C(=O)N2CCCCC2)CC(=O)N1C [Compound 1] ([NMeL][Cha][Sar][Sar][NMeCha][Sar][hPhe(3-Cl-4-CF3)]P[Ac5c][NMeChg][NMeD]-Piperidide; lactam N-11),5.9,> 500
CCCOC[C@H]1C(=O)N(C)CC(=O)N[C@@H](CCc2ccc(C(F)(F)F)c(Cl)c2)C(=O)N2CCC[C@H]2C(=O)NC2(CCCC2)C(=O)N(C)[C@@H]([C@@H](C)CC)C(=O)N(C)[C@H](C(=O)N2CCCCC2)CC(=O)N(C)[C@@H](CC(C)C)C(=O)N[C@@H]([C@@H](C)CC)C(=O)N(C)[C@@H](C)C(=O)N2CC[C@H]2C(=O)N1C [Compound 690] ([NMeL]I[NMeA][Aze][NMeS](Propyl)[Sar][hPhe(3-Cl-4-CF3)]P[Ac5c][NMeI][NMeD]-Piperidide; lactam N-11),1.8,≤ 20
CC[C@H](C)[C@@H]1NC(=O)[C@H](CC2CCCC2)N(C)C(=O)C[C@@H](C(=O)N2CCOCC2)N(C)C(=O)[C@H]([C@@H](C)CC)N(C)C(=O)C2(CCCC2)NC(=O)[C@@H]2CCCN2C(=O)[C@H](CCc2ccc(C(F)(F)F)c(Cl)c2)NC(=O)CN(C)C(=O)[C@H](Cc2ccc(C(F)(F)F)cc2)N(C)C(=O)[C@@H]2CCN2C(=O)[C@H](C)NC1=O [Compound 1371] ([NMeAla(cPent)]IA[Aze][NMePhe(4-CF3)][Sar][hPhe(3-Cl-4-CF3)]P[Ac5c][NMeI][NMeD]-Morpholide; lactam N-11),1.6,≤ 20
CC[C@H](C)[C@@H]1NC(=O)[C@H](C)N(C)C(=O)C[C@@H](C)NC(=O)[C@H](C2CCCC2)N(C)C(=O)C2(CCCC2)NC(=O)[C@@H]2CCCN2C(=O)[C@H](CCc2ccc(C(F)(F)F)c(Cl)c2)NC(=O)[C@@H](C)N(C)C(=O)[C@H](Cc2ccc(C)cc2)N(C)C(=O)[C@@H]2CCN2C(=O)CN(C)C1=O [Compound 1461] (cyclo([Ac5c][NMeGly(cPent)][d(β3hA)][NMeA]I[Sar][Aze][NMePhe(4-Me)][dNMeA][hPhe(3-Cl-4-CF3)]P)),37,> 500
"CC[C@H](C)[C@@H]1NC(=O)[C@H](CC(C)C)N(C)C(=O)C[C@@H](C(=O)N(C)C)N(C)C(=O)[C@H]([C@@H](C)CC)N(C)C(=O)C2(CCCC2)NC(=O)[C@@H]2CCCN2C(=O)[C@H](CCc2ccc(C(F)(F)F)c(F)c2)NC(=O)CN(C)C(=O)[C@H](Cc2ccc(C)cc2)N(C)C(=O)[C@@H]2CCN2C(=O)[C@H](C)N(C)C1=O [Compound 1017] ([NMeL]I[NMeA][Aze][NMePhe(4-Me)][Sar][hPhe(3-F,4-CF3)]P[Ac5c][NMeI][NMeD]-NMe2; lactam N-11)",0.88,≤ 20
"CC[C@H](C)[C@@H]1NC(=O)[C@H](CC(C)C)N(C)C(=O)C[C@@H](C(=O)N2CCCCC2)N(C)C(=O)[C@H](CC(C)C)NC(=O)C(C)(C)N(C)C(=O)[C@@H]2CCCCCC[C@@H](C(=O)N(C)CC(=O)N[C@@H](Cc3cccc(I)c3)C(=O)N2)N(C)C(=O)CN(C)C(=O)CN(C)C1=O [Compound 1411, (1S,7S,10S,14S,17S,26S,32S)-32-[(3-iodophenyl)methyl]-7,14-diisobutyl-3,4,4,9,13,19,22,25,28-nonamethyl-17-[(1S)-1-methylpropyl]-10-(piperidine-1-carbonyl)-3,6,9,13,16,19,22,25,28,31,34-undecazabicyclo[24.8.6]tetracontane-2,5,8,12,15,18,21,24,27,30,33-undecone]",82,> 500
